Experimental data published in ChEMBL document CHEMBL5352447, “Development of [1,2]oxazoloisoindoles tubulin polymerization inhibitors: Further chemical modifications and potential therapeutic effects against lymphomas” (Eur J Med Chem, 2022).

tested on: IGROV-1; assay: Antiproliferative activity against human IGROV-1 cells assessed as cell growth inhibition incubated for 72 hrs by MTT assay; assay type: functional; conditions: not given

| Compound | GI50 |
| --- | --- |
| CCOC(=O)c1noc2c1CCc1c-2cn(Cc2ccc(OC)cc2)c1-c1cc(OC)c(OC)c(OC)c1 | 2450 nM |

tested on: OVCAR-4; assay: Antiproliferative activity against human OVCAR-4 cells assessed as cell growth inhibition incubated for 72 hrs by MTT assay; assay type: functional; conditions: not given

| Compound | GI50 |
| --- | --- |
| CCOC(=O)c1noc2c1CCc1c-2cn(Cc2ccc(OC)cc2)c1-c1cc(OC)c(OC)c(OC)c1 | 20500 nM |

tested on: OVCAR-5; assay: Antiproliferative activity against human OVCAR-5 cells assessed as cell growth inhibition incubated for 72 hrs by MTT assay; assay type: functional; conditions: not given

| Compound | GI50 |
| --- | --- |
| CCOC(=O)c1noc2c1CCc1c-2cn(Cc2ccc(OC)cc2)c1-c1cc(OC)c(OC)c(OC)c1 | 4720 nM |

tested on: OVCAR-8; assay: Antiproliferative activity against human OVCAR-8 cells assessed as cell growth inhibition incubated for 72 hrs by MTT assay; assay type: functional; conditions: not given

| Compound | GI50 |
| --- | --- |
| CCOC(=O)c1noc2c1CCc1c-2cn(Cc2ccc(OC)cc2)c1-c1cc(OC)c(OC)c(OC)c1 | 3040 nM |

tested on: NCI/ADR-RES; assay: Antiproliferative activity against human NCI-ADR-RES cells assessed as cell growth inhibition incubated for 72 hrs by MTT assay; assay type: functional; conditions: not given

| Compound | GI50 |
| --- | --- |
| CCOC(=O)c1noc2c1CCc1c-2cn(Cc2ccc(OC)cc2)c1-c1cc(OC)c(OC)c(OC)c1 | 3520 nM |

tested on: SK-OV-3; assay: Antiproliferative activity against human SK-OV-3 cells assessed as cell growth inhibition incubated for 72 hrs by MTT assay; assay type: functional; conditions: not given

| Compound | GI50 |
| --- | --- |
| CCOC(=O)c1noc2c1CCc1c-2cn(Cc2ccc(OC)cc2)c1-c1cc(OC)c(OC)c(OC)c1 | 5230 nM |

tested on: A498; assay: Antiproliferative activity against human A498 cells assessed as cell growth inhibition incubated for 72 hrs by MTT assay; assay type: functional; conditions: not given

| Compound | GI50 |
| --- | --- |
| CCOC(=O)c1noc2c1CCc1c-2cn(Cc2ccc(OC)cc2)c1-c1cc(OC)c(OC)c(OC)c1 | 2770 nM |

tested on: ACHN; assay: Antiproliferative activity against human ACHN cells assessed as cell growth inhibition incubated for 72 hrs by MTT assay; assay type: functional; conditions: not given

| Compound | GI50 |
| --- | --- |
| CCOC(=O)c1noc2c1CCc1c-2cn(Cc2ccc(OC)cc2)c1-c1cc(OC)c(OC)c(OC)c1 | 3510 nM |

tested on: RXF 393; assay: Antiproliferative activity against human RXF 393 cells assessed as cell growth inhibition incubated for 72 hrs by MTT assay; assay type: functional; conditions: not given

| Compound | GI50 |
| --- | --- |
| CCOC(=O)c1noc2c1CCc1c-2cn(Cc2ccc(OC)cc2)c1-c1cc(OC)c(OC)c(OC)c1 | 2170 nM |

tested on: SN12C; assay: Antiproliferative activity against human SN12C cells assessed as cell growth inhibition incubated for 72 hrs by MTT assay; assay type: functional; conditions: not given

| Compound | GI50 |
| --- | --- |
| CCOC(=O)c1noc2c1CCc1c-2cn(Cc2ccc(OC)cc2)c1-c1cc(OC)c(OC)c(OC)c1 | 3920 nM |

tested on: TK-10; assay: Antiproliferative activity against human TK-10 cells assessed as cell growth inhibition incubated for 72 hrs by MTT assay; assay type: functional; conditions: not given

| Compound | GI50 |
| --- | --- |
| CCOC(=O)c1noc2c1CCc1c-2cn(Cc2ccc(OC)cc2)c1-c1cc(OC)c(OC)c(OC)c1 | > 100000 nM |

tested on: UO-31; assay: Antiproliferative activity against human UO-31 cells assessed as cell growth inhibition incubated for 72 hrs by MTT assay; assay type: functional; conditions: not given

| Compound | GI50 |
| --- | --- |
| CCOC(=O)c1noc2c1CCc1c-2cn(Cc2ccc(OC)cc2)c1-c1cc(OC)c(OC)c(OC)c1 | 3440 nM |

tested on: PC-3; assay: Antiproliferative activity against human PC-3 cells assessed as cell growth inhibition incubated for 72 hrs by MTT assay; assay type: functional; conditions: not given

| Compound | GI50 |
| --- | --- |
| CCOC(=O)c1noc2c1CCc1c-2cn(Cc2ccc(OC)cc2)c1-c1cc(OC)c(OC)c(OC)c1 | 2900 nM |

tested on: DU-145; assay: Antiproliferative activity against human DU-145 cells assessed as cell growth inhibition incubated for 72 hrs by MTT assay; assay type: functional; conditions: not given

| Compound | GI50 |
| --- | --- |
| CCOC(=O)c1noc2c1CCc1c-2cn(Cc2ccc(OC)cc2)c1-c1cc(OC)c(OC)c(OC)c1 | 2320 nM |

tested on: MCF7; assay: Antiproliferative activity against human MCF7 cells assessed as cell growth inhibition incubated for 72 hrs by MTT assay; assay type: functional; conditions: not given

| Compound | GI50 |
| --- | --- |
| CCOC(=O)c1noc2c1CCc1c-2cn(Cc2ccc(OC)cc2)c1-c1cc(OC)c(OC)c(OC)c1 | 350 nM |

tested on: MDA-MB-231; assay: Antiproliferative activity against human MDA-MB-231 cells assessed as cell growth inhibition incubated for 72 hrs by MTT assay; assay type: functional; conditions: not given

| Compound | GI50 |
| --- | --- |
| CCOC(=O)c1noc2c1CCc1c-2cn(Cc2ccc(OC)cc2)c1-c1cc(OC)c(OC)c(OC)c1 | 2700 nM |

tested on: BT-549; assay: Antiproliferative activity against human BT-549 cells assessed as cell growth inhibition incubated for 72 hrs by MTT assay; assay type: functional; conditions: not given

| Compound | GI50 |
| --- | --- |
| CCOC(=O)c1noc2c1CCc1c-2cn(Cc2ccc(OC)cc2)c1-c1cc(OC)c(OC)c(OC)c1 | 1470 nM |

tested on: T47D; assay: Antiproliferative activity against human T47D cells assessed as cell growth inhibition incubated for 72 hrs by MTT assay; assay type: functional; conditions: not given

| Compound | GI50 |
| --- | --- |
| CCOC(=O)c1noc2c1CCc1c-2cn(Cc2ccc(OC)cc2)c1-c1cc(OC)c(OC)c(OC)c1 | > 100000 nM |

tested on: VL51; assay: Antiproliferative activity against human VL51 cells assessed as proliferating cells at 1 uM incubated for 72 hrs by MTT assay relative to control; assay type: functional; conditions: not given

| Compound | Activity |
| --- | --- |
| CCOC(=O)c1noc2c1CCc1c-2cn(Cc2ccc(OC)cc2)c1-c1cc(OC)c(OC)c(OC)c1 | 79.7% |

tested on: SU-DHL10; assay: Antiproliferative activity against human SU-DHL-10 cells assessed as proliferating cells at 1 uM incubated for 72 hrs by MTT assay relative to control; assay type: functional; conditions: not given

| Compound | Activity |
| --- | --- |
| CCOC(=O)c1noc2c1CCc1c-2cn(Cc2ccc(OC)cc2)c1-c1cc(OC)c(OC)c(OC)c1 | 59% |

tested on: VL51; assay: Antiproliferative activity against human VL51 cells assessed as inhibition of cell proliferation incubated for 72 hrs by MTT assay; assay type: functional, cell-based; conditions: VL51, 72 h

| Compound | IC50 |
| --- | --- |
| CCOC(=O)c1noc2c1CCc1c-2cn(Cc2ccc(OC)cc2)c1-c1cc(OC)c(OC)c(OC)c1 | 1800 nM |

tested on: not listed separately; assay: Antiproliferative activity against human MINO cells assessed as inhibition of cell proliferation incubated for 72 hrs by MTT assay; assay type: functional, cell-based; conditions: not given

| Compound | IC50 |
| --- | --- |
| CCOC(=O)c1noc2c1CCc1c-2cn(Cc2ccc(OC)cc2)c1-c1cc(OC)c(OC)c(OC)c1 | 1400 nM |

tested on: not listed separately; assay: Antiproliferative activity against human HBL1 cells assessed as inhibition of cell proliferation incubated for 72 hrs by MTT assay; assay type: functional, cell-based; conditions: HBL1, 72 h

| Compound | IC50 |
| --- | --- |
| CCOC(=O)c1noc2c1CCc1c-2cn(Cc2ccc(OC)cc2)c1-c1cc(OC)c(OC)c(OC)c1 | 1700 nM |

tested on: SU-DHL10; assay: Antiproliferative activity against human SU-DHL-10 cells assessed as inhibition of cell proliferation incubated for 72 hrs by MTT assay; assay type: functional, cell-based; conditions: SU-DHL10, 72 h

| Compound | IC50 |
| --- | --- |
| CCOC(=O)c1noc2c1CCc1c-2cn(Cc2ccc(OC)cc2)c1-c1cc(OC)c(OC)c(OC)c1 | 2000 nM |
